Results: ChEMBL document CHEMBL4819125, “Synthesis and anti-proliferation activity of mogrol derivatives bearing quinoline and triazole moieties” (Bioorg Med Chem Lett, 2021)
Activity calls are given as the source filed them. No cut-off for these calls is given here.

What was measured:
A549 [1] = assay: Induction of cell cycle arrest in human A549 cells assessed as G2/M phase at 3.75 uM incubated for 72 hrs by PI staining based flow cytometry analysis (reference value: 14.78 %); type: functional
A549 [2] = assay: Induction of apoptosis in human A549 cells assessed as late apoptotic cells at 15 uM incubated for 72 hrs by annexin V-FITC and PI staining based flow cytometry analysis (reference value: 0.5 %); type: functional
A549 [3] = assay: Induction of apoptosis in human A549 cells assessed as late apoptotic cells at 3.75 uM incubated for 72 hrs by annexin V-FITC and PI staining based flow cytometry analysis (reference value: 0.5 %); type: functional
A549 [4] = assay: Induction of apoptosis in human A549 cells assessed as viable cells at 3.75 uM incubated for 72 hrs by annexin V-FITC and PI staining based flow cytometry analysis (reference value: 95.98 %); type: functional; details: read-out: Activity
A549 [5] = assay: Induction of cell cycle arrest in human A549 cells assessed as S phase at 7.5 uM incubated for 72 hrs by PI staining based flow cytometry analysis (reference value: 31.35 %); type: functional
A549 [6] = assay: Induction of cell cycle arrest in human A549 cells assessed as G0/G1 phase at 15 uM incubated for 72 hrs by PI staining based flow cytometry analysis (reference value: 53.87 %); type: functional
A549 [7] = assay: Induction of apoptosis in human A549 cells assessed as early apoptotic cells at 7.5 uM incubated for 72 hrs by annexin V-FITC and PI staining based flow cytometry analysis (reference value: 2.25 %); type: functional
A549 [8] = assay: Antiproliferative activity against human A549 cells assessed as reduction in cell growth by CCK8 assay; type: functional, cell-based
A549 [9] = assay: Induction of cell cycle arrest in human A549 cells assessed as G0/G1 phase at 3.75 uM incubated for 72 hrs by PI staining based flow cytometry analysis (reference value: 53.87 %); type: functional
NCI-H460 = assay: Antiproliferative activity against human NCI-H460 cells assessed as reduction in cell growth at 30 uM by CCK8 assay relative to control; type: functional
A549 [10] = assay: Induction of apoptosis in human A549 cells assessed as early apoptotic cells at 3.75 uM incubated for 72 hrs by annexin V-FITC and PI staining based flow cytometry analysis (reference value: 2.25 %); type: functional
A549 [11] = assay: Induction of apoptosis in human A549 cells assessed as viable cells at 7.5 uM incubated for 72 hrs by annexin V-FITC and PI staining based flow cytometry analysis (reference value: 95.98 %); type: functional; details: read-out: Activity
A549 [12] = assay: Induction of cell cycle arrest in human A549 cells assessed as S phase at 3.75 uM incubated for 72 hrs by PI staining based flow cytometry analysis (reference value: 31.35 %); type: functional
[13] = target: Signal transducer and activator of transcription 3 (Homo sapiens) (UniProt P40763); assay: Inhibition of STAT3 in human A549 cells assessed as reduction in STAT3 phosphorylation incubated for 72 hrs by Western blot analysis; type: cell-based; details: dose 3.75-15 µM
Signal transducer and activator of transcription 3 (Homo sapiens), sequence (P40763 whole entry): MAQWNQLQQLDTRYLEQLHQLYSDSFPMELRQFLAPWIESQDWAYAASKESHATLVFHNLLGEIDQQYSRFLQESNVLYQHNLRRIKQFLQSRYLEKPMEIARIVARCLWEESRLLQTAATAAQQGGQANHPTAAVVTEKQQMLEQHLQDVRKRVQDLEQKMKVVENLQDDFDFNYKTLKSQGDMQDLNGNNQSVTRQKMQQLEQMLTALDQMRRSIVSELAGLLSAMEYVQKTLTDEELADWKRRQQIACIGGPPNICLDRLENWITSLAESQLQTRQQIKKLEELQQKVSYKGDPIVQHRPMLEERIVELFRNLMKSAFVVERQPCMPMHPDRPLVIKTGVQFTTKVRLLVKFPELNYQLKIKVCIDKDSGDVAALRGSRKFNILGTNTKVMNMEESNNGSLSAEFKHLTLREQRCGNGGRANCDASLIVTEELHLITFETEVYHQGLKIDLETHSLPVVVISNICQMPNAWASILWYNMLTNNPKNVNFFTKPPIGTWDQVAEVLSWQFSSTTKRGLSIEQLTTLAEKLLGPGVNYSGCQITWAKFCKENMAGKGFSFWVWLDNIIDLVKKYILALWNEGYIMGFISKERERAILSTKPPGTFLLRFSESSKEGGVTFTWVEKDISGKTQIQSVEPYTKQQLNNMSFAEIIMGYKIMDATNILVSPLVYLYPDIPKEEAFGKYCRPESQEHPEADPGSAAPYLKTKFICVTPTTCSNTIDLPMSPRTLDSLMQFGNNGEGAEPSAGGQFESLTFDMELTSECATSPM

A549 [14] = assay: Induction of cell cycle arrest in human A549 cells assessed as S phase at 15 uM incubated for 72 hrs by PI staining based flow cytometry analysis (reference value: 31.35 %); type: functional
A549 [15] = assay: Induction of apoptosis in human A549 cells assessed as necrotic cells at 3.75 uM incubated for 72 hrs by annexin V-FITC and PI staining based flow cytometry analysis (reference value: 1.27 %); type: functional
A549 [16] = assay: Induction of cell cycle arrest in human A549 cells assessed as G2/M phase at 15 uM incubated for 72 hrs by PI staining based flow cytometry analysis (reference value: 14.78 %); type: functional
A549 [17] = assay: Induction of apoptosis in human A549 cells assessed as necrotic cells at 15 uM incubated for 72 hrs by annexin V-FITC and PI staining based flow cytometry analysis (reference value: 1.27 %); type: functional
A549 [18] = assay: Induction of cell cycle arrest in human A549 cells assessed as G0/G1 phase at 7.5 uM incubated for 72 hrs by PI staining based flow cytometry analysis (reference value: 53.87 %); type: functional
A549 [19] = assay: Induction of cell cycle arrest in human A549 cells assessed as G0/G1 phase incubated for 72 hrs by PI staining based flow cytometry analysis; type: functional; details: dose 3.75-15 µM
A549 [20] = assay: Antiproliferative activity against human A549 cells assessed as reduction in cell growth at 30 uM by CCK8 assay relative to control; type: functional
A549 [21] = assay: Induction of apoptosis in human A549 cells assessed as early apoptotic cells at 15 uM incubated for 72 hrs by annexin V-FITC and PI staining based flow cytometry analysis (reference value: 2.25 %); type: functional
A549 [22] = assay: Induction of apoptosis in human A549 cells assessed as late apoptotic cells at 7.5 uM incubated for 72 hrs by annexin V-FITC and PI staining based flow cytometry analysis (reference value: 0.5 %); type: functional
A549 [23] = assay: Induction of apoptosis in human A549 cells assessed as late apoptotic cells incubated for 72 hrs by annexin V-FITC and PI staining based flow cytometry analysis; type: functional, cell-based; details: dose 3.75-15 µM
A549 [24] = assay: Effect on STAT3 expression in human A549 cells at 3.75 to 15 uM incubated for 72 hrs by Western blot analysis; type: functional, cell-based; details: dose 3.75-15 µM
A549 [25] = assay: Induction of apoptosis in human A549 cells assessed as necrotic cells at 7.5 uM incubated for 72 hrs by annexin V-FITC and PI staining based flow cytometry analysis (reference value: 1.27 %); type: functional
A549 [26] = assay: Induction of apoptosis in human A549 cells assessed as early apoptotic cells incubated for 72 hrs by annexin V-FITC and PI staining based flow cytometry analysis; type: functional, cell-based; details: dose 3.75-15 µM
A549 [27] = assay: Induction of cell cycle arrest in human A549 cells assessed as G2/M phase at 7.5 uM incubated for 72 hrs by PI staining based flow cytometry analysis (reference value: 14.78 %); type: functional
A549 [28] = assay: Induction of apoptosis in human A549 cells assessed as viable cells at 15 uM incubated for 72 hrs by annexin V-FITC and PI staining based flow cytometry analysis (reference value: 95.98 %); type: functional; details: read-out: Activity

IC50 (A549 [8]): 4.47 µM
inhibition [13]: Dose-Dependent Effect
SMILES: C[C@H](CC[C@@H](O)C(C)(C)O)[C@H]1CC[C@@]2(C)[C@@H]3CC=C4[C@@H](CC[C@H](O)C4(C)C)[C@]3(C)[C@H](OC(=O)Cn3cc(-c4cccc(Cl)c4)nn3)C[C@]12C
Activity (A549 [1]): 13.93%
Activity (A549 [2]): 1.53%
Activity (A549 [3]): 0.79%
viability at 3.75 µM (A549 [4]): 94.9%
Activity (A549 [5]): 28.46%
Activity (A549 [6]): 72.72%
Activity (A549 [7]): 3.66%
Activity (A549 [9]): 55.45%
inhibition at 30 µM (NCI-H460): 33.8%
Activity (A549 [10]): 2.28%
viability at 7.5 µM (A549 [11]): 91.7%
Activity (A549 [12]): 30.62%
Activity (A549 [14]): 16.03%
Activity (A549 [15]): 2.07%
Activity (A549 [16]): 11.25%
Activity (A549 [17]): 1.92%
Activity (A549 [18]): 60.04%
Activity (A549 [19]): Dose-Dependent Effect
inhibition at 30 µM (A549 [20]): 90.2%
Activity (A549 [21]): 4.8%
Activity (A549 [22]): 1.27%
Activity (A549 [23]): Dose-Dependent Effect
inhibition (A549 [24]): Active
Activity (A549 [25]): 3.37%
Activity (A549 [26]): Dose-Dependent Effect
Activity (A549 [27]): 11.5%
viability at 15 µM (A549 [28]): 91.7%
